{"source": "patent US20240041386A1", "about": "“MICROCHIP BASED RECORDING OF NEUROVASCULAR ACTIVITY AND BEHAVIOR” (NEUREFLECT, INC., priority 2021, published 2024)", "test_system": "cortical spreading depression (CSD)", "assay": "Optically triggered cortical spreading depression (CSD) threshold in mice with skull-attached microchip", "assay_type": "in vivo", "details": "Thy1/ChR2 mice under isoflurane anesthesia, compared with the wake state; data not shown", "protocol": "Cortical spreading depression (CSD) in freely behaving mice was triggered optically by administering sequential pulses of light with increasing duration until CSD was observed based on OIS. After each light pulse, OIS was monitored for at least 10 minutes for the occurrence of CSD. If CSD occurred, no further stimulus pulses were delivered, whereas if no CSD occurred, then the duration was increased with the subsequent pulse. To trigger CSD under anesthesia, the cage that the animal was housed in was rapidly flushed with 2% isoflurane in a 20/80% O2/N2 gas mixture. After the animal lost consciousness, the isoflurane was reduced to 1.5% to sustain anesthesia. For prolonged experiments a heating pad set at 37° C. was placed under the cage and a small paper blanket was placed over the animal to maintain its core temperature. Breathing pattern and paw color were continuously monitored. Anesthesia was maintained until CBV returned to baseline levels at the end of the CSD. […] After each light pulse, OIS was monitored for a t least 10 minutes for a CSD, If CSD occurred, no further pulses were delivered. If a baseline threshold was well determined, stimulations were started 3-4 steps before that baseline for subsequent CSDs. […] These measurements illustrate that threshold for optically triggering CSD can be quantified based upon the duration of light stimulation required to evoke CSD. […]"}
{"smiles": "FC(F)OC(Cl)C(F)(F)F", "note": "(stereo not shown) [isoflurane]", "values": [{"measurement": "threshold for triggering CSD (duration of blue light stimulation required to evoke CSD)", "value": "significantly lower than in the wake state"}]}
